Tests used:
[1] = target: hDGAT2 (Homo sapiens (Human), UniProt Q96PD7); assay: In vitro DGAT2 assay, hDGAT2 membrane fraction, [14C]decanoyl-CoA scintillation readout; format: biochemical; conditions: geometric mean; FLAG-hDGAT2 membrane fraction; 2 h preincubation; read-out: IC50 for inhibition of DGAT2
Description: Recombinant baculovirus for the FLAG-tagged hDGAT2 was generated in SF9 insect cells using Bac-to-Bac baculovirus expression system (Invitrogen) according to the manufacturer's protocol. For the expression of hDGAT2, SF9 cells (20 L) grown in Sf90011 media were infected with hDGAT2 baculovirus at a multiplicity of infection of 1 in a Wave Bioreactor System 20/50P wave bag (GE Healthcare). After 40 hours of infection, the cells were then harvested by centrifugation at 5,000×g. The cell pellets were washed by resuspending in phosphate buffered saline (PBS) and collected by centrifugation at 5,000×g. The cell paste was flash frozen in liquid N2 and stored at −80° C. until needed. All operations below were at 4° C. unless otherwise noted. The cells were resuspended in lysis buffer (50 mM Tris-HCl, pH 8.0, 250 mM sucrose) including 1 mM ethylenediaminetetraacetic acid (EDTA) and the complete protease inhibitor cocktail (Roche Diagnostics) at a ratio of 3 ml buffer per 1 g cell paste. The cells were lysed by dounce homogenizer. The cell debris was removed by centrifugation at 1,000×g for 20 min, and the supernatant was centrifuged at 100,000×g for 1 hour. The resulting pellet was rinsed three times by filling ultracentrifuge tubes to the top with ice cold PBS before decanting. The washed pellet was resuspended with gentle stirring for 1 hour in lysis buffer containing 8 mM 3-[(3-cholamidopropyl)dimethylammonio]-1-propanesulfonate (CHAPS) at a ratio of 1 mL buffer per 1 g of original cell paste and centrifuged again at 100,000×g for 1 hour. The resulting supernatant was aliquotted, flash frozen in liquid N2, and stored at −80° C. until use.
For determination of IC50 values, the reactions were carried out in 384-well white Polyplates (Perkin Elmer) in a total volume of 20 μL. To […] compounds dissolved in 100% DMSO and spotted at the bottom of each well, 5 μL of 0.04% bovine serum albumin (BSA) (fatty acid free, Sigma Aldrich) was added and the mixture was incubated at room temperature for 20 minutes. To this mixture, 10 μL of hDGAT2 membrane fraction (0.01 mg/mL) diluted in 100 mM Hepes-NaOH, pH 7.4, 20 mM MgCl2 containing 200 nM methyl arachidonyl fluorophosphonate (Cayman Chemical; dried from ethyl acetate stock solution under argon gas and dissolved in DMSO as 5 mM stock) was added. After this mixture was preincubated at room temperature for 2 hours, DGAT2 reactions were initiated by the addition of 4 μL of substrates containing 30 μM [1-^14C]decanoyl-CoA (custom-synthesized by Perkin Elmer, 50 mCi/mmol) and 125 μM 1,2-didecanoyl-sn-glycerol (Avanti Polar Lipids) dissolved in 12.5% acetone. The reaction mixtures were incubated at room temperature for 40 min and the reactions were stopped by addition of 5 μL of 1% H3PO4. After the addition of 45 μL MicroScint-E (Perkin-Elmer), plates were sealed with Top Seal-A covers (Perkin-Elmer) and phase partitioning of substrates and products was achieved using a HT-91100 microplate orbital shaker (Big Bear Automation, Santa Clara, Calif.). Plates were centrifuged at 2,000×g for 1 min in an Allegra 6R Centrifuge (Beckman Coulter) and then were sealed again with fresh covers before reading in a 1450 Microbeta Wallac Trilux Scintillation Counter (Perkin Elmer). DGAT2 activity was measured by quantifying the generated product [^14C]tridecanoylglycerol in the upper organic phase.
Inhibitors were tested at eleven different concentrations to generate IC50 values for each compound.

[2] = target: DGAT2 in primary human hepatocytes (Homo sapiens (Human), UniProt Q96PD7); assay: IC50 for DGAT2 inhibitors in human hepatocytes, [14C]-glycerol incorporation into lipids; format: cell-based; conditions: average; cryopreserved human hepatocytes; selective DGAT1 inhibitor 3 μM in all wells; 3 hour incubation; read-out: IC50 in primary human hepatocytes
Sequence of DGAT2 in primary human hepatocytes (Q96PD7 whole entry): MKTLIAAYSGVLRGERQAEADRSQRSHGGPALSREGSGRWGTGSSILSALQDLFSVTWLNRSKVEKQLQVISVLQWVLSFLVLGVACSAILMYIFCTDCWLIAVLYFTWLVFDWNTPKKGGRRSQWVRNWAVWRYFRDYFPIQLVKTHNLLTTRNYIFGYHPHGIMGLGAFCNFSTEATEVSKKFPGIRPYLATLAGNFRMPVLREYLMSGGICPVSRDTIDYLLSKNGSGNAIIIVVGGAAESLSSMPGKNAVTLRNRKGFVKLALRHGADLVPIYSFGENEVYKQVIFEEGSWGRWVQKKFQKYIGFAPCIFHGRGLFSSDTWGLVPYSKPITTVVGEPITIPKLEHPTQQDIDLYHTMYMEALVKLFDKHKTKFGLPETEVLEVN
Description: For evaluation of the effects of DGAT2 inhibitors in a cell-based setting, cryopreserved human hepatocytes (Lot QOC and NON, Celsis, Chicago, Ill.) were thawed and plated onto type I collagen-coated plates according to the manufacturer's instructions. After 24 hours overnight recovery period, the cells were overlayed with media containing 250 μg/ml Matrigel (BD Biosciences, San Jose, Calif.). The following day, media was aspirated and replaced with serum-free Williams Media E (Life Technologies, Grand Island, N.Y.) containing 400 μM sodium dodecanoate (Sigma-Aldrich, St. Louis, Mo.). Forty minutes later, DGAT2 inhibitors (prepared as 100× stocks in 25% DMSO, 75% Williams' Media E) were added to the desired final concentration. […] After a 20 minute preincubation, 0.2 μCi [1,3-^14C]-glycerol glycerol (American Radio Chemicals, St. Louis, Mo.) was added to each well and mixed by gentle pipetting prior to a 3 hour incubation. At this point, media was aspirated and the cells were lysed in isopropyl alcohol: tetrahydrofuran (9:1) prior to centrifugation at 3000 rpm for 5 minutes. Radiolabeled lipids were resolved using a 2-solvent system by thin layer chromatography using standard technique (solvent 1 contained ethyl acetate:isopropyl alcohol:chloroform:methanol:0.25% potassium chloride in water (100:100:100:40.2:36.1, v/v/v/v) and solvent 2 contained hexane: diethyl ether: acetic acid (70:27:3, v/v/v)). After separation, radiolabeled lipids were visualized using a Molecular Dynamics' PhosphorImager system. The half maximal inhibitory concentrations (IC50 values) were determined using GraphPad Prism (GraphPad Software, Inc., La Jolla, Calif.).
Table 4 below provides IC50 values for the Examples in accordance with the above-described assay. Results were reported as average IC50 values, low and high IC50 range (95% confidence interval).

Sequence of hDGAT2 (Q96PD7 whole entry): as above

Row | Compound | IC50 [1] [nM] | IC50 [2] [nM]
1 | CCOc1ccccc1O[C@@H]1CCCN(c2ncc(C(=O)NCc3ccc(C(=O)O)cc3)cn2)C1 [Example 18.1, (R)-4-((2-(3-(2-ethoxyphenoxy)piperidin-1-yl)pyrimidine-5-carboxamido)methyl)benzoic acid] | 165 | 116
2 | CCOc1ccccc1O[C@@H]1CCCN(c2ncc(C(=O)NCc3ccccc3CC(=O)O)cn2)C1 [Example 18.3, (R)-2-(2-((2-(3-(2-ethoxyphenoxy)piperidin-1-yl)pyrimidine-5-carboxamido)methyl)phenyl)acetic acid] | 182 | 499
3 | CCOc1ccccc1O[C@@H]1CCCN(c2ncc(C(=O)NCc3cccc(C(=O)O)c3)cn2)C1 [Example 1, (R)-3-((2-(3-(2-ethoxyphenoxy)piperidin-1-yl)pyrimidine-5-carboxamido)methyl)benzoic acid] | 91.6 | 11.2
4 | CCOc1ccccc1O[C@@H]1CCCN(c2ccc(C(=O)NCc3cccc(C(=O)O)c3)cn2)C1 [Example 7, (R)-3-((6-(3-(2-ethoxyphenoxy)piperidin-1-yl)nicotinamido)methyl)benzoic acid] | 149 | 19.2
5 | CCOc1ccccc1O[C@@H]1CCCN(c2ncc(C(=O)NCc3cc(C(=O)O)ccc3C)cn2)C1 [Example 9, (R)-3-((2-(3-(2-ethoxyphenoxy)piperidin-1-yl)pyrimidine-5-carboxamido)methyl)-4-methylbenzoic acid] | 38.1 | 57
6 | CCOc1ccccc1O[C@@H]1CCCN(c2ncc(C(=O)NCc3cccc(CC(=O)O)c3)cn2)C1 [Example 18.2, (R)-2-(3-((2-(3-(2-ethoxyphenoxy)piperidin-1-yl)pyrimidine-5-carboxamido)methyl)phenyl)acetic acid] | 156 | 45.7
7 | CCOc1ccccc1O[C@@H]1CCCN(c2ncc(C(=O)NCc3cc(OC)cc(C(=O)O)c3)cn2)C1 [Example 2, (R)-3-((2-(3-(2-ethoxyphenoxy)piperidin-1-yl)pyrimidine-5-carboxamido)methyl)-5-methoxybenzoic acid] | 123 | 11.5
8 | CCOc1ccccc1O[C@@H]1CCCN(c2ncc(C(=O)N[C@H]3CCC[C@H]3C(=O)O)cn2)C1 [Example 6, (1R,2S)-2-(2-((R)-3-(2-ethoxyphenoxy)piperidin-1-yl)pyrimidine-5-carboxamido)cyclopentane-1-carboxylic acid] | 222 | 57.8
9 | CCOc1ccccc1O[C@@H]1CCCN(c2ncc(C(=O)NCCc3cn[nH]c3O)cn2)C1 [Example 20.8, (R)-2-(3-(2-ethoxyphenoxy)piperidin-1-yl)-N-(2-(5-hydroxy-1H-pyrazol-4-yl)ethyl)pyrimidine-5-carboxamide] | 29.3 | 37.8
10 | CCOc1ccccc1O[C@@H]1CCCN(c2ncc(C(=O)NCc3nc(=O)[nH][nH]3)cn2)C1 [Example 20.5, (R)-2-(3-(2-ethoxyphenoxy)piperidin-1-yl)-N-((5-oxo-2,5-dihydro-1H-1,2,4-triazol-3-yl)methyl)pyrimidine-5-carboxamide] | 68 | 81.6
11 | CCOc1ccccc1O[C@@H]1CCCN(c2ncc(C(=O)N[C@H]3CCC[C@H]3C(=O)O)cc2F)C1 [Example 5, (1R,2S)-2-(6-((R)-3-(2-ethoxyphenoxy)piperidin-1-yl)-5-fluoronicotinamido)cyclopentane-1-carboxylic acid] | 66.6 | 8.4
